Legend:
Rhipicephalus sanguineus = Rhipicephalus sanguineus in vitro contact test; type: in vivo; conditions: application rate 5 μg/cm^2; adult dog ticks; after 48 h
Protocol: Rhipicephalus sanguineus—In Vitro Contact Tests
(§1) For the coating of the test tubes, 9 mg of active compound are first dissolved in 1 ml of acetone p.a. and then diluted to the desired concentration with acetone p.a. 250 μl of the solution are distributed homogeneously on the inner walls and the base of a 25 ml test tube by turning and rocking on an orbital shaker (rocking rotation at 30 rpm for 2 h). With 900 ppm active compound solution and internal surface 44.7 cm^2, given homogeneous distribution, an area-based dose of 5 μg/cm^2 is achieved.
After the solvent has evaporated off, the tubes are populated with 5-10 adult dog ticks (Rhipicephalus sanguineus), sealed with a perforated plastic lid and incubated in a horizontal position in the dark at room temperature and ambient humidity. After 48 h, efficacy is determined. To this end, the ticks are knocked to the floor of the tube and incubated on a hotplate at 45-50° C. for not more than 5 min. Ticks which remain motionless on the floor or move in such an uncoordinated manner that they are unable to deliberately avoid the heat by climbing upwards are considered to be dead or moribund.
An efficacy of 100% means that all the ticks were dead or moribund. 0% efficacy means that none of the ticks had been harmed.

[1] = log P by HPLC on reversed-phase column (C18), EEC Directive 79/831 Annex V.A8; type: physicochemical; conditions: reversed-phase C18 HPLC column; HPLC, C18, acetonitrile/water with formic acid gradient; read-out: log P
Protocol: ^a) Unless indicated otherwise, the following method was used to determine the log P values and masses: The determination of the given log P values was carried out in accordance with EEC Directive 79/831 Annex V.A8 by HPLC (High Performance Liquid Chromatography) on a reversed-phase column (C18). Agilent 1100 LC system; 50*4.6 Zorbax Eclipse Plus C18 1.8 micron; mobile phase A: acetonitrile (0.1% formic acid); mobile phase B: water (0.09% formic acid); linear gradient from 10% acetonitrile to 95% acetonitrile in 4.25 min, then 95% acetonitrile for a further 1.25 min; oven temperature 55° C.; flow rate: 2.0 ml/min. Mass detection is effected by means of an Agilend MSD system.

[2] = test system: Boophilus microplus Parkhurst strain, SP-resistant; assay: Boophilus microplus dip test (BOOPMI Dip); type: in vivo; conditions: application rate 20 ppm; engorged adult female cattle ticks; after 7 days
Protocol: Boophilus microplus—Dip Test (BOOPMI Dip) Test animals: cattle ticks (Boophilus microplus) Parkhurst strain, SP-resistant Solvent: dimethyl sulphoxide
10 mg of active compound are dissolved in 0.5 ml of dimethyl sulphoxide. To produce a suitable formulation, the active compound solution is diluted with water to the concentration desired in each case.
This active compound preparation is pipetted into tubes. 8-10 engorged adult female cattle ticks (Boophilus microplus) are transferred into a further tube with holes. The tube is immersed into the active compound preparation, and all the ticks are completely wetted. After the liquid has run out, the ticks are transferred on filter discs into plastic dishes and stored in a climate-controlled room.
(§2) Efficacy is assessed after 7 days by laying of fertile eggs. Eggs which are not visibly fertile are stored in a climate-controlled cabinet until the larvae hatch after about 42 days. An efficacy of 100% means that none of the ticks has laid any fertile eggs; 0% means that all the eggs are fertile.

Boophilus microplus = Boophilus microplus injection test (BOOPMI Inj); type: in vivo; conditions: application rate 20 μg/animal; injection into abdomen
Protocol: Boophilus microplus—Injection Test (BOOPMI Inj) Solvent: dimethyl sulphoxide
To produce a suitable preparation of active compound, 10 mg of active compound are mixed with 0.5 ml of solvent and the concentrate is diluted with solvent to the desired concentration.
1 μl of the active compound solution is injected into the abdomen of 5 engorged adult female cattle ticks (Boophilus microplus). The animals are transferred into dishes and kept in a climate-controlled room.
as §2, with “The activity” for “Efficacy”, “the desired time” for “7 days”

Ctenocephalides felis [3] = assay: Ctenocephalides felis in vitro contact test; type: in vivo; conditions: application rate 5 μg/cm^2; adult cat fleas; after 48 h
Protocol: Ctenocephalides felis—In Vitro Contact Test
as §1
After the solvent has evaporated off, the tubes are populated with 5-10 adult cat fleas (Ctenocephalides felis), sealed with a perforated plastic lid and incubated in a horizontal position at room temperature and ambient humidity. After 48 h, efficacy is determined. To this end, the test tubes are stood upright and the fleas are knocked to the base of the tube. Fleas which remain motionless at the base or move in an uncoordinated manner are considered to be dead or moribund.
100% efficacy means that all the fleas were dead or moribund. 0% efficacy means that no fleas were harmed.

Lucilia cuprina = Lucilia cuprina test (LUCICU); type: in vivo; conditions: application rate 100 ppm; L1 larvae; after 2 days
Protocol: Lucilia cuprina-Test (LUCICU) Solvent: dimethyl sulphoxide
(§3) To produce a suitable preparation of active compound, 10 mg of active compound are mixed with 0.5 ml of dimethyl sulphoxide, and the concentrate is diluted with water to the desired concentration.
About 20 L1 larvae of the Australian sheep blowfly (Lucilia cuprina) are transferred into a test vessel containing minced horsemeat and the active compound preparation of the desired concentration.
After 2 days, the kill in % is determined. 100% means that all the larvae have been killed; 0% means that no larvae have been killed.

Tetranychus urticae = Tetranychus urticae spray test, OP-resistant (TETRUR); type: in vivo; conditions: application rate 100 g/ha; bean leaf discs; after 6 days
Protocol: Tetranychus urticae—Spray Test, OP-Resistant (TETRUR) Solvent: 78.0 parts by weight of acetone • • 1.5 parts by weight of dimethylformamide Emulsifier: alkylaryl polyglycol ether
(§4) To produce a suitable preparation of active compound, 1 part by weight of active compound is dissolved using the specified parts by weight of solvent and made up with water containing an emulsifier concentration of 1000 ppm until the desired concentration is attained. To produce further test concentrations, the preparation is diluted with emulsifier-containing water.
Discs of bean leaves (Phaseolus vulgaris) infested by all stages of the greenhouse red spider mite (Tetranychus urticae) are sprayed with an active ingredient formulation of the desired concentration.
After 6 days, efficacy in % is determined. 100% means that all the spider mites have been killed; 0% means that no spider mites have been killed.

Amblyomma hebraeum = assay: Amblyomma hebaraeum test (AMBYHE), tick nymph immersion; type: in vivo; conditions: application rate 20 ppm; tick nymphs; after 42 days
Protocol: Amblyomma hebaraeum Test (AMBYHE) Solvent: dimethyl sulphoxide
as §3
Tick nymphs (Amblyomma hebraeum) are placed into perforated plastic beakers and immersed in the desired concentration for one minute. The ticks are transferred on filter paper into a Petri dish and stored in a climate-controlled cabinet.
After 42 days, the kill in % is determined. 100% means that all of the ticks have been killed; 0% means that none of the ticks have been killed.

Spodoptera frugiperda = Spodoptera frugiperda spray test (SPODFR); type: in vivo; conditions: application rate 100 g/ha; maize leaf discs; after 7 days
Protocol: Spodoptera frugiperda—Spray Test (SPODFR)
Solvent: 78.0 parts by weight of acetone • • 1.5 parts by weight of dimethylformamide Emulsifier: alkylaryl polyglycol ether
as §4
Leaf discs of maize (Zea mays) are sprayed with an active compound preparation of the desired concentration and, after drying, populated with caterpillars of the armyworm (Spodoptera frugiperda).
After 7 days, efficacy in % is determined. 100% means that all the caterpillars have been killed; 0% means that no caterpillars have been killed.

Ctenocephalides felis [4] = assay: Ctenocephalides felis oral test (CTECFE); type: in vivo; conditions: application rate 100 ppm in citrated cattle blood; after 2 days
Protocol: Ctenocephalides felis—Oral Test (CTECFE) Solvent: dimethyl sulphoxide
To produce a suitable preparation of active compound, 10 mg of active compound are mixed with 0.5 ml of dimethyl sulphoxide. Dilution with citrated cattle blood gives the desired concentration.
About 20 unfed adult cat fleas (Ctenocephalides felis) are placed into a chamber which is closed at the top and bottom with gauze. A metal cylinder whose bottom end is closed with parafilm is placed onto the chamber. The cylinder contains the blood/active compound preparation, which can be imbibed by the fleas through the parafilm membrane.
After 2 days, the kill in % is determined. 100% means that all of the fleas have been killed; 0% means that none of the fleas have been killed.

Phaedon cochleariae = Phaedon cochleariae spray test (PHAECO); type: in vivo; conditions: application rate 100 g/ha; Chinese cabbage leaf discs; after 7 days
Protocol: Phaedon cochleariae—Spray Test (PHAECO) Solvent: 78.0 parts by weight of acetone • • 1.5 parts by weight of dimethylformamide Emulsifier: alkylaryl polyglycol ether
as §4
After 7 days, efficacy in % is determined. 100% means that all the beetle larvae have been killed; 0% means that no beetle larvae have been killed.

Musca domestica = Musca domestica test (MUSCDO); type: in vivo; conditions: application rate 100 ppm; adult houseflies; after 2 days
Protocol: Musca domestica-Test (MUSCDO) Solvent: dimethyl sulphoxide
as §3
Vessels containing a sponge treated with sugar solution and the active compound preparation of the desired concentration are populated with 10 adult houseflies (Musca domestica).
After 2 days, the kill in % is determined. 100% means that all of the flies have been killed; 0% means that none of the flies have been killed.

Cn1nc(C(F)(F)C(F)(F)F)c(C(F)(F)F)c1-c1cn(-c2ccc(Cl)c(C(=O)NC3CC3)c2)nn1 [Ig-1, 2-chloro-N-cyclopropyl-5-{4-[1-methyl-3-(pentafluoroethyl)-4-(trifluoromethyl)-1H-pyrazol-5-yl]-1H-1,2,3-triazol-1-yl}benzamide]
efficacy (Rhipicephalus sanguineus): 100%
chromatographic logP [1]: 3.67
efficacy (laying of fertile eggs) [2]: 100%
efficacy (laying of fertile eggs) (Boophilus microplus): 100%
efficacy (Ctenocephalides felis [3]): 100%
efficacy (kill) (Lucilia cuprina): 100%
efficacy (Tetranychus urticae): 100%
efficacy (kill) (Amblyomma hebraeum): 100%
efficacy (Spodoptera frugiperda): 100%
efficacy (kill) (Ctenocephalides felis [4]): 100%
efficacy (Phaedon cochleariae): 100%
efficacy (kill) (Musca domestica): 100%
